Source: patent US20050239656A1, “Pyridine compounds or salts thereof and herbicides containing the same” (priority 2002, published 2005)

What was measured:
barnyardgrass [1] = experiment: Test Example 1: foliage treatment, upland pot test; type: in vivo, Echinochloa crus-galli L.; conditions: active ingredient 500 g/ha, observed 18th to 23rd day, 0 = non-treated, 100 = complete kill
Method in brief: (§1)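 Upland pot test, foliar. Soybean 0.1–0.4 / wheat 1.3–2.4 / rice 1.2–2.6 / barnyardgrass 1.3–2.8 leaf stage at spraying; 500 L/ha carrier, 0.1% (v/v) spreader. Visual % control, 0 untreated to 100 dead, days 18–23.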

crabgrass [2] = experiment: Test Example 1: foliage treatment, upland pot test; type: in vivo, Digitaria sanguinalis L.; conditions: active ingredient 500 g/ha, observed 18th to 23rd day, 0 = non-treated, 100 = complete kill
green foxtail [3] = experiment: Test Example 1: foliage treatment, upland pot test; type: in vivo, Setaria viridis L.; conditions: active ingredient 500 g/ha, observed 18th to 23rd day, 0 = non-treated, 100 = complete kill
redroot pigweed [4] = experiment: Test Example 1: foliage treatment, upland pot test; type: in vivo, Amaranthus retroflexus L.; conditions: active ingredient 500 g/ha, observed 18th to 23rd day, 0 = non-treated, 100 = complete kill
prickly sida [5] = experiment: Test Example 1: foliage treatment, upland pot test; type: in vivo, Sida spinosa L.; conditions: active ingredient 500 g/ha, observed 18th to 23rd day, 0 = non-treated, 100 = complete kill
velvetleaf [6] = experiment: Test Example 1: foliage treatment, upland pot test; type: in vivo, Abutilon theophrasti MEDIC.; conditions: active ingredient 500 g/ha, observed 18th to 23rd day, 0 = non-treated, 100 = complete kill
rice [7] = experiment: Test Example 1: foliage treatment, upland pot test; type: in vivo, Oryza sativa L.; conditions: crop, active ingredient 500 g/ha, observed 18th to 23rd day, 0 = non-treated, 100 = complete kill
Method in brief: as §1

corn [8] = experiment: Test Example 1: foliage treatment, upland pot test; type: in vivo, Zea mays L.; conditions: crop, active ingredient 500 g/ha, observed 18th to 23rd day, 0 = non-treated, 100 = complete kill
Method in brief: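 Corn seeds were sown in upland field soil held in a 1/170,000 ha pot and grown to the 2.1 to 3.2 leaf stage. A wettable powder or emulsifiable concentrate of the test compound was diluted with water at 500 L/ha, given 0.1% (v/v) agricultural spreader, and sprayed onto the foliage with a small sprayer. Growth controlling degree (%) was scored visually 18th to 23rd days later, from 0 (non-treated) to 100 (complete kill).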

soybean [9] = experiment: Test Example 1: foliage treatment, upland pot test; type: in vivo, Glycine max Merr.; conditions: crop, active ingredient 500 g/ha, observed 18th to 23rd day, 0 = non-treated, 100 = complete kill
Method in brief: as §1

barnyardgrass [10] = experiment: Test Example 2: soil surface treatment, upland pot test; type: in vivo, Echinochloa crus-galli L.; conditions: active ingredient 500 g/ha, observed 20th to 28th day
Method in brief: (§2)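 In this pre-emergence upland pot test, a small sprayer delivered the diluted compound formulation (1,500 L/ha water) to the soil surface the day after seeding. Plants were then observed, and control was scored from 0 to 100% some 20–28 days after treatment.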

crabgrass [11] = experiment: as above; type: in vivo, Digitaria sanguinalis L.; conditions: active ingredient 500 g/ha, observed 20th to 28th day
Method in brief: as §2

green foxtail [12] = experiment: as above; type: in vivo, Setaria viridis L.; conditions: active ingredient 500 g/ha, observed 20th to 28th day
Method in brief: as §2

redroot pigweed [13] = experiment: as above; type: in vivo, Amaranthus retroflexus L.; conditions: active ingredient 500 g/ha, observed 20th to 28th day
Method in brief: as §2

prickly sida [14] = experiment: as above; type: in vivo, Sida spinosa L.; conditions: active ingredient 500 g/ha, observed 20th to 28th day
Method in brief: as §2

velvetleaf [15] = experiment: as above; type: in vivo, Abutilon theophrasti MEDIC.; conditions: active ingredient 500 g/ha, observed 20th to 28th day
Method in brief: as §2

rice [16] = experiment: as above; type: in vivo, Oryza sativa L.; conditions: active ingredient 500 g/ha, observed 20th to 28th day
Method in brief: as §2

corn [17] = experiment: as above; type: in vivo, Zea mays L.; conditions: active ingredient 500 g/ha, observed 20th to 28th day
Method in brief: as §2

soybean [18] = experiment: as above; type: in vivo, Glycine max Merr.; conditions: active ingredient 500 g/ha, observed 20th to 28th day
Method in brief: as §2

barnyardgrass [19] = experiment: Test Example 3: paddy pot test, application under submerged conditions; type: in vivo, Echinochloa crus-galli L.; conditions: active ingredient 250 g/ha; submerged application at 0.5 leaf stage; visually observed 14 days after application; 0 = non-treated, 100 = complete kill
Method in brief: (§3)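 Barnyardgrass and japanese bulrush sown in flooded paddy soil in greenhouse pots, japanese ribbon wapato tubers planted 1–2 days later; water depth kept at 3–4 cm. Diluted wettable powder or emulsifiable concentrate applied into water at 0.5-leaf or primary-leaf stage at set active-ingredient doses. Growth control scored visually at 14 days, 0 (untreated) to 100% (complete kill).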

japanese bulrush = experiment: as above; type: in vivo, Scirpus juncoides; conditions: active ingredient 250 g/ha; submerged application at 0.5 leaf stage; visually observed 14 days after application; 0 = non-treated, 100 = complete kill
Method in brief: as §3

japanese ribbon wapato = experiment: as above; type: in vivo, Sagittaria pygniaea; conditions: active ingredient 250 g/ha; submerged application at primary leaf stage; visually observed 14 days after application; 0 = non-treated, 100 = complete kill
Method in brief: as §3

rice (var. Nihonbare) = experiment: Test Example 3: paddy pot test, transplanted rice; type: in vivo, Oryza sativa L.; conditions: active ingredient 250 g/ha, applied 4th day after transplantation, visually observed 21st day after application, 0 = non-treated, 100 = complete kill
Method in brief: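 Rice (var. Nihonbare) at 2 leaf stage transplanted 3 cm deep into puddled paddy soil under 3–4 cm flooding; on day 4 after transplanting, diluted wettable powder or emulsifiable concentrate applied by pipette under submerged conditions at a set active-ingredient dose. Growth scored visually 21 days after application, 0 (untreated) to 100 (complete kill) %.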

| Compound | Growth controlling degree (%) Barnyardgrass (barnyardgrass [1]) | Growth controlling degree (%) Crabgrass (crabgrass [2]) | Growth controlling degree (%) Green foxtail (green foxtail [3]) | Growth controlling degree (%) Redroot pigweed (redroot pigweed [4]) | Growth controlling degree (%) Prickly sida (prickly sida [5]) | Growth controlling degree (%) Velvetleaf (velvetleaf [6]) | Growth controlling degree (%) Rice (rice [7]) | Growth controlling degree (%) Corn (corn [8]) | Growth controlling degree (%) Soybean (soybean [9]) | Growth controlling degree (%) Barnyardgrass (barnyardgrass [10]) | Growth controlling degree (%) Crabgrass (crabgrass [11]) | Growth controlling degree (%) Green foxtail (green foxtail [12]) | Growth controlling degree (%) Redroot pigweed (redroot pigweed [13]) | Growth controlling degree (%) Prickly sida (prickly sida [14]) | Growth controlling degree (%) Velvetleaf (velvetleaf [15]) | Growth controlling degree (%) Rice (rice [16]) | Growth controlling degree (%) Corn (corn [17]) | Growth controlling degree (%) Soyabean (soybean [18]) | Growth controlling degree (%) Barnyardgrass (barnyardgrass [19]) | Growth controlling degree (%) Japanese bulrush (japanese bulrush) | also measured |
| --- | --- | --- | --- | --- | --- | --- | --- | --- | --- | --- | --- | --- | --- | --- | --- | --- | --- | --- | --- | --- | --- |
| CC(C)C(c1cnccc1C(F)(F)F)N(C)C(=O)Cc1c(F)cccc1Cl (centres unmarked) [I-33] | 20% | 80% | 70% | 60% | 70% | 80% | 30% | 0% | 40% | 100% | 100% | 90% | 80% | 80% | 90% | 10% | 30% | 0% | 100% | 85% | Growth controlling degree (%) Japanese ribbon wapato (japanese ribbon wapato): 90%; Growth controlling degree (%) Rice (rice (var. Nihonbare)): 10% |
| Cc1ccccc1CC(=O)N(C)C(c1cnccc1C(F)(F)F)C(C)C (centres unmarked) [I-36] | 95% | 98% | 70% | 80% | 90% | 70% | 10% | 35% | 70% | 100% | 98% | 98% | 80% | 100% | 50% | 30% | 20% | 10% | 100% | 95% | Growth controlling degree (%) Japanese ribbon wapato (japanese ribbon wapato): 90%; Growth controlling degree (%) Rice (rice (var. Nihonbare)): 10% |
| COc1ccc(CC(=O)N(C)C(c2cnccc2C(F)(F)F)C(C)C)cc1 (centres unmarked) [I-38] | 70% | 70% | 60% | 80% | 70% | 90% | 10% | 40% | 60% | 100% | 90% | 80% | 80% | 100% | 0% | 20% | 10% | 0% | 100% | 70% | Growth controlling degree (%) Japanese ribbon wapato (japanese ribbon wapato): 85%; Growth controlling degree (%) Rice (rice (var. Nihonbare)): 30% |
| CC(C)C(c1cnccc1C(F)(F)F)N(C)C(=O)Cc1cccc(C(F)(F)F)c1 (centres unmarked) [I-40] | 40% | 95% | 70% | 80% | 80% | 90% | 50% | 90% | 60% | 95% | 100% | 100% | 90% | 100% | 70% | 20% | 50% | 30% | 100% | 50% | Growth controlling degree (%) Japanese ribbon wapato (japanese ribbon wapato): 50%; Growth controlling degree (%) Rice (rice (var. Nihonbare)): 0% |
| CC(C)C(c1cnccc1C(F)(F)F)N(C)C(=O)Cc1ccc(F)c(F)c1 (centres unmarked) [I-60] | 60% | 80% | 70% | 60% | 70% | 90% | 50% | 70% | 35% | 98% | 100% | 98% | 80% | 98% | 70% | 20% | 10% | 10% | 100% | 70% | Growth controlling degree (%) Japanese ribbon wapato (japanese ribbon wapato): 95%; Growth controlling degree (%) Rice (rice (var. Nihonbare)): 30% |
